Test results reported in paper PMC6896485, “Aryl derivatives of 3H-1,2-benzoxathiepine 2,2-dioxide as carbonic anhydrase inhibitors” (Journal of Enzyme Inhibition and Medicinal Chemistry, 2019).
Read-outs that look alike come from different tables or passages of the source.

Legend:
[1] = stopped-flow CO2 hydration; type: biochemical, Homo sapiens; settings: read-out: KI (nM) ^* / CA I
Description: (§1) stopped-flow CO2 hydration on hCA XII

[2] = molecular target: T1, hCA IX (Homo sapiens, UniProt Q16790); experiment: stopped-flow CO2 hydration; type: biochemical; settings: read-out: KI (nM) ^* / CA IX
T1 construct: gene CA9; recombinant, obtained in-house
Description: stopped-flow CO2 hydration on hCA IX

[3] = molecular target: T2, hCA XII (Homo sapiens, UniProt O43570); experiment: stopped-flow CO2 hydration; type: biochemical; settings: read-out: KI (nM) ^* / CA XII
T2 construct: gene CA12; recombinant, obtained in-house
T2 sequence (O43570 25-354): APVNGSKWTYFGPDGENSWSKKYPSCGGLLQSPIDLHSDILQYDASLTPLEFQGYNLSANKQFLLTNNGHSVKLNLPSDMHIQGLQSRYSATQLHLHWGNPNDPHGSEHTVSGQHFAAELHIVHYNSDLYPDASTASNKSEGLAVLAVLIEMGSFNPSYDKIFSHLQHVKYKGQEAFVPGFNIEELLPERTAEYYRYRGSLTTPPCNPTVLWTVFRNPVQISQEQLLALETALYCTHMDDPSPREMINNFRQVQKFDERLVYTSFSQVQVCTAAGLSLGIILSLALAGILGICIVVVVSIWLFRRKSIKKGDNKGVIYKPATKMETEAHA
Description: as §1

[4] = CO2 […], Hepes pH […] Na2SO4, […] h preincubation at room temperature

Structure (SMILES)	Ki [1]	Ki [2]	Ki [3]	Ki [3, 4]	Ki [2, 4]
COc1ccc(-c2cccc3c2OS(=O)(=O)CC=C3)cc1 [compound 31, 9–(4-Methoxyphenyl)-3H-1,2-benzoxathiepine 2,2-dioxide]	> 100000 nM	60900 nM	–	–	–
CCOC(=O)c1ccc(-c2cccc3c2OS(=O)(=O)CC=C3)cc1 [compound 34, 9–(4-(Ethoxycarbonyl)phenyl)-3H-1,2-benzoxathiepine 2,2-dioxide]	> 100000 nM	16400 nM	–	–	–
O=S1(=O)CC=Cc2cc(I)ccc2O1 [compound 7, 7-Iodo-3H-1,2-benzoxathiepine 2,2-dioxide]	–	66.2 nM	455 nM	–	–
O=S1(=O)CC=Cc2cccc(-c3ccc(F)cc3)c2O1 [compound 32, 9–(4-Fluorophenyl)-3H-1,2-benzoxathiepine 2,2-dioxide]	> 100000 nM	33700 nM	–	–	–
COc1ccc(-c2ccc3c(c2)OS(=O)(=O)CC=C3)cc1 [compound 22, 8–(4-Methoxyphenyl)-3H-1,2-benzoxathiepine 2,2-dioxide]	–	63.1 nM	169 nM	–	–
CCOC(=O)c1ccc(-c2ccc3c(c2)OS(=O)(=O)CC=C3)cc1 [compound 25, 8–(4-(Ethoxycarbonyl)phenyl)-3H-1,2-benzoxathiepine 2,2-dioxide]	–	79.8 nM	289 nM	–	–
O=S1(=O)CC=Cc2cccc(-c3ccccc3)c2O1 [compound 30, 9-Phenyl-3H-1,2-benzoxathiepine 2,2-dioxide]	> 100000 nM	21100 nM	–	–	–
O=S1(=O)CC=Cc2cc(-c3ccc(F)cc3)ccc2O1 [compound 10, 7–(4-Fluorophenyl)-3H-1,2-benzoxathiepine 2,2-dioxide]	–	331 nM	890 nM	–	–
CCOC(=O)c1ccc(-c2ccc3c(c2)C=CCS(=O)(=O)O3)cc1 [compound 12, 7–(4-(Ethoxycarbonyl)phenyl)-3H-1,2-benzoxathiepine 2,2-dioxide]	–	621 nM	2400 nM	–	–
O=S1(=O)CC=Cc2ccc(Br)cc2O1 [compound 20, 8-Bromo-3H-1,2-benzoxathiepine 2,2-dioxide]	–	47.5 nM	133 nM	–	–
O=S1(=O)CC=Cc2cc(-c3ccccc3)ccc2O1 [compound 8, 7-Phenyl-3H-1,2-benzoxathiepine 2,2-dioxide]	–	655 nM	1380 nM	–	–
O=S1(=O)CC=Cc2ccc(-c3ccc(F)cc3)cc2O1 [compound 23, 8–(4-Fluorophenyl)-3H-1,2-benzoxathiepine 2,2-dioxide]	–	95.2 nM	–	77.9 nM	–
O=S1(=O)CC=Cc2cccc(-c3ccc(C(F)(F)F)cc3)c2O1 [compound 33, 9–(4-(Trifluoromethyl)phenyl)-3H-1,2-benzoxathiepine 2,2-dioxide]	> 100000 nM	47100 nM	–	–	–
O=S1(=O)CC=Cc2ccc(-c3ccc(C(F)(F)F)cc3)cc2O1 [compound 24, 8–(4-(Trifluoromethyl)phenyl)-3H-1,2-benzoxathiepine 2,2-dioxide]	–	–	248 nM	–	44 nM
O=S1(=O)CC=Cc2cccc(Br)c2O1 [compound 29, 9-Bromo-3H-1,2-benzoxathiepine 2,2-dioxide]	–	755 nM	3820 nM	–	–
O=S1(=O)CC=Cc2cc(-c3ccc(C(F)(F)F)cc3)ccc2O1 [compound 11, 7–(4-(Trifluoromethyl)phenyl)-3H-1,2-benzoxathiepine 2,2-dioxide]	–	221 nM	4020 nM	–	–
COc1ccc(-c2ccc3c(c2)C=CCS(=O)(=O)O3)cc1 [compound 9, 7–(4-Methoxyphenyl)-3H-1,2-benzoxathiepine 2,2-dioxide]	–	408 nM	2930 nM	–	–
O=S1(=O)CC=Cc2ccc(-c3ccccc3)cc2O1 [compound 21, 8-Phenyl-3H-1,2-benzoxathiepine 2,2-dioxide]	–	105 nM	473 nM	–	–
